According to US12264173B2 (GILEAD SCIENCES, INC., priority 2020, dated 2025):
Read-outs that look alike come from different tables or passages of the source.

What was measured:
Assay type in all cases: cell-based
HCV Rep 1B = HCV Rep 1B EC50 (replicon luciferase)
Description: (§1) Compounds were serially diluted in ten steps of 1:3 dilutions in 384-well plates. All serial dilutions were performed in four replicates per compound within the same 384-well plate. […] To each well of a black polystyrene 384-well plate (Greiner Bio-one, Monroe, NC), 90 μL of cell culture medium (without Geneticin) containing 2000 suspended HCV replicon cells was added with a Biotek μFlow workstation. For compound transfer into cell culture plates, 0.4 μL of compound solution from the compound serial dilution plate was transferred to the cell culture plate on a Biomek FX workstation. The DMSO concentration in the final assay wells was 0.44%. The plates were incubated for 3 days at 37° C. with 5% CO2 and 85% humidity. The HCV replicon assay was a multiplex assay, able to assess both cytotoxicity and antireplicon activity from the same well. The CC50 assay was performed first. The media in the 384-well cell culture plate was aspirated, and the wells were washed four times with 100 μL of PBS each, using a Biotek ELX405 plate washer. A volume of 50 μL of a solution containing 400 nM calcein AM (Anaspec, Fremont, CA) in 1×PBS was added to each well of the plate with a Biotek μFlow workstation. The plate was incubated for 30 min at room temperature before the fluorescence signal (excitation 490 nm, emission 520 nm) was measured with a Perkin-Elmer Envision plate reader. The EC50 assay was performed in the same wells as the CC50 assay. The calcein-PBS solution in the 384-well cell culture plate was aspirated with a Biotek ELX405 plate washer. A volume of 20 μL of Dual-Glo luciferase buffer (Promega, Madison, WI) was added to each well of the plate with a Biotek μFlow Workstation. The plate was incubated for 10 min at room temperature. A volume of 20 μL of a solution containing a 1:100 mixture of Dual-Glo Stop & Glo substrate (Promega, Madison, WI) and Dual-Glo Stop & Glo buffer (Promega, Madison, WI) was added to each well of the plate with a Biotek μFlow Workstation. The plate was then incubated at room temperature for 10 min before the luminescence signal was measured with a Perkin-Elmer Envision Plate Reader.

RSV strain A2 = test: microbe, parasite or virus in culture; details: Table 3, HEp-2 cells, RSV A2, 4 days, read-out: RSV HEp-2 EC50
In short: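 Cytopathic-effect protection assay: HEp-2 cells (50,000/mL) infected with pre-titered RSV A2 onto 3-fold serial compound dilutions, incubated 4 days at 37° C. Cell viability read by CellTiter-Glo luminescence; percent inhibition derived against 0% and 100% virus-inhibition controls.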

HCV Rep 2A = HCV Rep 2A EC50 (replicon luciferase)
Description: as §1

RSV A2 = test: RSV NHBE EC50 (RSV A2 antiviral assay in NHBE cells); details: read-out: RSV NHBE EC50
In short: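 Step 1: seed NHBE cells (7,500/well, BEGM) overnight. Step 2: add 3-fold diluted compound, DMSO 0.05%. Step 3: infect with RSV A2, 1×10^4.5 TCID/mL; incubate 4 days, 37° C. Step 4: CellTiter-Glo luminescence.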

[1] = system: Dengue serotype 2 New Guinea C (NGC) strain; test: DENV-2 Huh-7 EC50 (qPCR in Huh7 cells); details: Dengue virus, Huh-7; Table 5 comparative activity, 2',3'-OH vs -OC(O)iPr; read-out: DENV Huh7 EC50
Description: Huh7 (Human hepatocarcinoma 7) cells were maintained in 10% FCS-containing DMEM complete media. On the day of the assay, cells were trypsinized (0.1% Trypsin-EDTA), washed and infected for 2 hours in serum-free DMEM with Dengue serotype 2 New Guinea C (NGC) strain at MOI=0.1 with gentle agitation at 37° C. After 2 hours, cells were washed with serum-free media and suspended in 10% FCS-containing DMEM (Gibco, supplemented with sodium pyruvate, NEAA, Penicillin-Streptomycin). 10^5 cells were plated in triplicate in 96-well plates with compounds dispensed at graded doses (Hewlett-Packard D300 Digital Dispenser). All wells were normalized to 0.25% DMSO. At 48 hours, cells were washed with 1×PBS and all supernatants removed. Total RNA was extracted using RNEasy 96 plates (Qiagen) and used to generate first-strand cDNA using XLT cDNA 5× Supermix (QuantaBio). cDNA was used as a template in a Taqman qPCR duplex reaction specific to DENV2 viral and GAPDH gene expression. EC50 values were determined using Prism Graphpad software, with normalization to a positive control and no compound negative control wells.

HRV16 = HRV16 HeLa EC50 (cytopathic effect in H1-HeLa cells); details: read-out: HRV16 HeLa EC50
In short: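 Read-out is luminescent cell viability (CellTiter-Glo) after 96 h of infection at 33 °C, scaled between uninfected and infected-untreated wells. Before infection with titrated virus, compounds went onto H1-HeLa cells as triplicate 3-fold dilution series.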

[2] = system: Dengue 2, New Guinea strain (NGC); test: DENV moDC EC50 (qPCR in human monocyte-derived dendritic cells); details: Dengue virus, Dendritic cell; Table 3; human moDCs, 48 hours
Description: Human monocyte-derived dendritic cells (moDCs) were derived from CD14+ monocytes (AllCells) cultured in Human Mo-DC Differentiation medium containing GM-CSF and IL-4 (Miltenyi Biotec). On day 7, moDCs were harvested by mechanical disruption, washed and suspended in serum-free RPMI. moDCs were infected with Vero-derived Dengue 2, New Guinea strain (NGC) at a MOI=0.1 for two hours in serum-free RPMI with gentle agitation at 37° C. Cells were washed and resuspended in 10% serum-containing RPMI (Gibco, supplemented with sodium pyruvate, NEAA, Penicillin-Streptomycin). […] were plated in triplicate in 96-well plates with compounds dispensed at graded doses (Hewlett-Packard D300 Digital Dispenser). All wells were normalized to 0.25% DMSO. At 48 hours, cells were washed with 1×PBS and all supernatants removed. Total RNA was extracted using RNEasy 96 plates (Qiagen) and used to generate first-strand cDNA using XLT cDNA 5× Supermix (QuantaBio). cDNA was used as a template in a Taqman qPCR duplex reaction specific to DENV2 viral and GAPDH gene expression. EC50 values were determined using Prism Graphpad software, with normalization to a positive control and no compound negative control wells.

DENV2 replicon = test: DENV-2 Huh-7 Rep EC50 (replicon luminescence); details: Dengue virus, DENV2, Huh-7, 48 h
In short: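 EC50 derived from luminescence dose-response, normalised to DMSO-only 0% inhibition wells, after 1.5 h with EnduRen substrate. Compounds were first exposed for 48 h at 37° C to DENV2 replicon Huh-7 cells (5,000/well).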

[3] = Table 4, replicon cells, 3 days, read-out: HCV Rep 1B EC50
[4] = Table 4, replicon cells, 3 days, read-out: HCV Rep 2A EC50
[5] = human respiratory syncytial virus, NHBE, 96 h, Table 3, NHBE cells, RSV A2, 4 days
[6] = human respiratory syncytial virus, HEp-2, 96 h

## CC(C)C(=O)O[C@H]1[C@H](c2ccc3c(N)ncnn23)O[C@](C#N)(COP(=O)(N[C@@H](C)C(=O)OC2COC2)Oc2ccccc2)[C@H]1OC(=O)C(C)C (single isomer, unassigned) [Example 185]
HCV Rep 1B; [3]
  EC50: 217 nM
RSV strain A2
  EC50: 26 nM
HCV Rep 2A; [4]
  EC50: 730 nM

## CC(C)C(=O)OC1C(c2ccc3c(N)ncnn23)OC(C#N)(COP(=O)(NC(C)C(=O)OC2CCN(C)C2)Oc2ccccc2)C1OC(=O)C(C)C (single isomer, unassigned) [Example 234]
RSV A2; Table 3, NHBE cells, RSV A2, 4 days
  EC50: 30 nM
HCV Rep 1B; [3]
  EC50: 905 nM
RSV strain A2
  EC50: 57 nM
HCV Rep 2A; [4]
  EC50: 1820 nM

## COC(=O)[C@H](C)N[P@](=O)(OC[C@@]1(C#N)O[C@@H](c2ccc3c(N)ncnn23)[C@H](O)[C@@H]1O)Oc1ccccc1 [Example 52, methyl ((S)-(((2R,3S,4R,5S)-5-(4-aminopyrrolo[2,1-f][1,2,4]triazin-7-yl)-2-cyano-3,4-dihydroxytetrahydrofuran-2-yl)methoxy)(phenoxy)phosphoryl)-L-alaninate]
[1]
  EC50: 5480 nM
RSV A2; human respiratory syncytial virus, NHBE, Table 5 comparative activity, 2',3'-OH vs -OC(O)iPr
  EC50: 252 nM
HCV Rep 1B; Hepatitis C virus, Table 5 comparative activity, 2',3'-OH vs -OC(O)iPr, read-out: HCV Rep1B EC50
  EC50: 3960 nM
HRV16; HeLa, Table 5 comparative activity, 2',3'-OH vs -OC(O)iPr
  EC50: 1250 nM
HCV Rep 2A; Hepatitis C virus, Table 5 comparative activity, 2',3'-OH vs -OC(O)iPr, read-out: HCV Rep2A EC50
  EC50: 7460 nM

## CCC(=O)O[C@H]1[C@H](c2ccc3c(N)ncnn23)O[C@](C#N)(COP(=O)(N[C@@H](C)C(=O)OCC2CCC2)N[C@@H](C)C(=O)OCC2CCC2)[C@H]1OC(=O)CC [Example 125, ((2R,3S,4R,5S)-5-(4-aminopyrrolo[2,1-f][1,2,4]triazin-7-yl)-2-cyano-3,4-dipropionatetetrahydrofuran-2-yl)methyl bis-cyclobutylmethyl L-alaninate phosphate]
RSV A2; [5]
  EC50: 79 nM
HRV16; 96 h, Table 3, H1-HeLa cells, 96 h
  EC50: 2030 nM
RSV strain A2; [6]
  EC50: 700 nM
[2]
  EC50: 20700 nM
DENV2 replicon; read-out: DENV-2 REP Huh7 EC50, Table 3, Huh-7 DENV2 replicon cells, 48 hours
  EC50: 48700 nM

## COC(=O)[C@H](C)N[P@](=O)(OC[C@@]1(C#N)O[C@@H](c2ccc3c(/N=C/N4CCN(C)CC4)ncnn23)[C@H](OC(=O)C(C)C)[C@@H]1OC(=O)C(C)C)Oc1ccccc1 [Example 261, (2R,3S,4S,5S)-2-cyano-2-((((S)-(((S)-1-methoxy-1-oxopropan-2-yl)amino)(phenoxy)phosphoryl)oxy)methyl)-5-(4-(((E)-(4-methylpiperazin-1-yl)methylene)amino)pyrrolo[2,1-f][1,2,4]triazin-7-yl)tetrahydrofuran-3,4-diyl bis(2-methylpropanoate)]
RSV A2; [5]
  EC50: 13 nM
HCV Rep 1B; Hepatitis C virus, 72 h, Table 4, replicon cells, 3 days, read-out: HCV Rep 1B EC50
  EC50: 524 nM
RSV strain A2; [6]
  EC50: 42 nM
HCV Rep 2A; Hepatitis C virus, 72 h, Table 4, replicon cells, 3 days, read-out: HCV Rep 2A EC50
  EC50: 1220 nM
DENV2 replicon; read-out: DENV-2 REP Huh7 EC50
  EC50: 2340 nM
